This assay concerns the target T1, CXCR7 (Homo sapiens, UniProt P25106).
T1 construct: expressed in transfected cells; host or cells: CHO cells (CHO-CXCR7), transgenes maintained with Hygromycin B and G418
The experiment in a line: CXCR7 β-arrestin recruitment assay in CHO-CXCR7 cells (ProLink/EA β-galactosidase complementation), induced by human SDF-1a. The assay is classed as cell-based. The settings on record: assay buffer, SDF-1a at EC50 concentration. How it is done: CXCR7 is fused in frame with a small enzyme donor fragment ProLink and co-expressed in CHO cells stably expressing a fusion protein of β-arrestin and the larger, N-terminal deletion mutant of β-galactosidase (called enzyme acceptor or EA). Activation of the CXCR7 stimulates binding of β-arrestin to the ProLink-tagged CXCR7 and forces complementation of the two enzyme fragments, resulting in the formation of an active β-galactosidase enzyme. The β-galactosidase enzyme activity is measured with a substrate that generates fluorescence.
CHO-CXCR7 cells (0.22×10^6/mL) were cultured in growth medium (Ham's F-12 medium with 10% fetal bovine serum (FBS)), Hygromycin B (200 ug/mL) and G418 (250 ug/mL) were used to maintain the transgenes. The day before the assay, the cells were detached from culture dishes with 0.25% trypsin-EDTA (Corning, Catalog No. 25-053-CI), plated into 96 well plate (2.2×10^5 cells/mL, 100 μL/well) and incubated overnight at 37° C. with 5% CO2. On the day of the assay, cell culture medium was removed and 100 uL of assay buffer (PBS or FBS) was added to each well. 1 μL of compound that were serially diluted in DMSO was added to each well. 5 μL of human SDF-la (Pepro Tech, Catalog No. 300-28A, at EC50 concentration pre-determined on the same day) was then added and mixed to induce CXCR7-mediated β-arrestin recruitment. The plates were incubated for 1.5 hours at 37° C. The assay buffer was removed, 100 μL substrate solution was added and the reaction was carried out at 37° C. for 30 minutes. The substrate solution was prepared by mixing 100 mL Phosphate Buffer (1M, Sigma, Catalog No. P3619-1GA), 100 mL 10% Triton X 100 (Sigma, Catalog No. T8787.), 5 mL MgCl2 (1M, Sigma, Catalog No. M1028), 1.5 mL, β-mercaptoethanol (Gibco, Catalog No. 21985-023.). 3-carboxyumbelliferyl β-D-galactopyranoside (ThermoFisher Scientific, Catalo No. F2905) was added at 0.4 mM right before use. The reaction was then stopped by adding 50 μL of Stop Solution (2.1% w/v Na2CO3) to each well. Fluorescence intensity was measured with a FlexStation 3 microplate reader (Molecular Devices) with the following setting—excitation: 360 nm, emission: 465 nm, manual Gain: 55. IC50 values were calculated with GraphPad Prism using 3 parameter nonlinear regression.
T1 sequence (P25106 whole entry): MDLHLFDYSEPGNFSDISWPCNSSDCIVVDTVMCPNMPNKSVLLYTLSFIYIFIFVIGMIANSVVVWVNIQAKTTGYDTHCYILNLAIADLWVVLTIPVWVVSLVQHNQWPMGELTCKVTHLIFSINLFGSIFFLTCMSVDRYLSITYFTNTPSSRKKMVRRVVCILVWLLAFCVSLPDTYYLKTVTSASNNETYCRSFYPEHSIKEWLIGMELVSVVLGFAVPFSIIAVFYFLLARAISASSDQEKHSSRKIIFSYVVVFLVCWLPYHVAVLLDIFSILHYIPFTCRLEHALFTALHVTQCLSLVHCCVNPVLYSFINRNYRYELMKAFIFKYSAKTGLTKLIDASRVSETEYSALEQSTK
In turn, `CC(C)(NC(=O)CC1(NC(=O)c2cc(-c3ccc(F)cc3F)on2)CN([C@H]2CC[C@](C)(O)CC2)C1)c1cccc(Cl)c1` [Example 1.221] yielded an IC50 below 5 nM. Regarding `CC(C)(NC(=O)CC1(NC(=O)c2cc(-c3ccc(F)cc3F)on2)CN([C@H]2CC[C@@](C)(O)CC2)C1)c1cc(F)ccc1F` [Example 1.235], the IC50 was below 5 nM. `CC(C)(O)CN1CC(CC(=O)NC(C)(C)c2ccccn2)(NC(=O)c2cc(-c3ccc(F)cc3F)on2)C1` [Example 1.255] yielded an IC50 of 5 to 100 nM.

With `COc1cccc(C(C)(C)NC(=O)CC2(NC(=O)c3cc(-c4ccc(F)cc4F)on3)CN([C@H]3CC[C@](C)(O)CC3)C2)c1` [Example 1.239], the IC50 lay in the range of 5 to 100 nM. Compound `Cc1ccnc(C(C)(C)NC(=O)CC2(NC(=O)c3cc(-c4ccc(F)cc4F)on3)CN([C@H]3CC[C@](C)(O)CC3)C2)c1` [Example 1.164] had an IC50 below 5 nM. With `CC(C)(NC(=O)CC1(NC(=O)c2cc(-c3ccc(F)cc3F)on2)CN(C2CCCCC2)C1)c1ccnc2[nH]ccc12` [Example 1.082], the IC50 is below 5 nM. `CC(C)(O)CN1CC(CC(=O)NC(C)(C)c2cccc(Cl)c2)(NC(=O)c2cc(-c3ccc(F)cc3F)on2)C1` [Example 1.178] returned an IC50 below 5 nM. Consider `O=C(CC1(NC(=O)c2cc(-c3ccc(F)cc3F)on2)CN(C2CCCCC2)C1)NC1(c2ccccc2)CC1` [Example 1.325], for which the half-inhibitory concentration (IC50) was in the range of 5 to 100 nM.

`CC(C)(NC(=O)CC1(NC(=O)c2cc(-c3ccc(F)cc3F)sn2)CN([C@H]2CC[C@](C)(O)CC2)C1)c1cccc(Cl)c1` [Example 1.044] showed an IC50 of 100 to 1000 nM. `Cc1ccc(F)c(C(C)(C)NC(=O)CC2(NC(=O)c3cc(-c4ccc(F)cc4F)on3)CN([C@H]3CC[C@@](C)(O)CC3)C2)c1` [Example 1.184]: the IC50 was below 5 nM. Turning to `CC(C)(NC(=O)CC1(NC(=O)c2cc(-c3ccc(F)cc3F)on2)CN([C@H]2CC[C@](C)(O)CC2)C1)c1ccccn1` [Example 1.035], the IC50 lay within 5 to 100 nM.

Regarding `CC(C)(NC(=O)CC1(NC(=O)c2cc(-c3ccc(F)cc3F)on2)CN(C2CCC3(CCOCC3)CC2)C1)c1ccccn1` [Example 1.102], the IC50 lay in the range of 100 to 1000 nM. For `COC1CCCCC1N1CC(CC(=O)NC(C)(C)c2ccccn2)(NC(=O)c2cc(-c3ccc(F)cc3F)on2)C1` (stereo not shown) [Example 1.305], the IC50 is below 5 nM. For the compound `Cc1ccnc(C(C)(C)NC(=O)CC2(NC(=O)c3nnc(-c4ccc(F)cc4F)s3)CN([C@H]3CC[C@](C)(O)CC3)C2)n1` [Example 1.041], the IC50 fell in the range of 5 to 100 nM. Consider `Cc1cc(Cl)cc(C(C)(C)NC(=O)CC2(NC(=O)c3cc(-c4ccc(F)cc4F)on3)CN([C@H]3CC[C@](C)(O)CC3)C2)c1` [Example 1.090], for which the IC50 was below 5 nM. Turning to `O=C(CC1(NC(=O)c2cc(-c3ccc(F)cc3F)on2)CN(Cc2ccccc2)C1)NC1(c2ncccn2)CC1` [Example 1.329], the IC50 fell in the range of 100 to 1000 nM. `Cc1cccc(C(C)(C)NC(=O)CC2(NC(=O)c3cc(-c4ccc(F)cc4F)on3)CN(CC(C)(C)O)C2)n1` [Example 1.240]: the IC50 fell in the range of 5 to 100 nM.

As to `CC(C)(NC(=O)CC1(NC(=O)c2cc(-c3ccc(F)cc3F)on2)CN([C@H]2CC[C@@](C)(O)CC2)C1)c1cnccn1` [Example 1.157], the IC50 lay in the range of 5 to 100 nM.

The compound `Cc1ccnc(C(C)(C)NC(=O)CC2(NC(=O)c3nnc(-c4ccc(F)cc4F)s3)CN([C@H]3CC[C@](C)(O)CC3)C2)c1` [Example 1.338] displayed an IC50 of 5 to 100 nM. In the case of `C[C@]1(O)CC[C@@H](N2CC(CC(=O)NCc3c[nH]c4ccccc34)(NC(=O)c3cc(-c4ccc(F)cc4F)on3)C2)CC1` [Example 1.278], the 50% inhibitory concentration (IC50) was 1000 to 20000 nM.

With `Cc1cccc(C(C)(C)NC(=O)CC2(NC(=O)c3cc(-c4ccc(F)cc4F)on3)CN(CC3(C)COC3)C2)n1` [Example 1.217], the IC50 was 5 to 100 nM. As for `CC(C)(NC(=O)CC1(NC(=O)c2cc(-c3ccc(F)cc3F)on2)CN([C@H]2CC[C@@](C)(O)CC2)C1)c1cc(Cl)ccc1F` [Example 1.132], the IC50 was below 5 nM.

As usually defined, the IC50 is the midpoint of a concentration-inhibition curve. A high value points to lower potency.

Values taken from patent US12448373B2, “Azetidinyl-acetamides as CXCR7 inhibitors” (CHEMOCENTRYX, INC., priority 2021, dated 2025).
